Experimental data reported in ChEMBL document CHEMBL1136384, “Design, synthesis and biological evaluation of hetaryl-nucleoside derivatives as inhibitors of chitin synthase” (Bioorg Med Chem Lett, 2003).

Columns and labels:
[1] = Compound tested for the inhibition of chitin synthase using Saccharomyces cerevisiae cells (X2180 strain)
[2] = tested on: Aspergillus fumigatus; assay: Inhibitory activity tested against Aspergillus fumigatus at 256 ug/mL concentration; assay type: functional
[3] = tested on: Candida albicans; assay: Inhibitory activity tested against Candida albicans at 256 ug/mL concentration; assay type: functional
[4] = tested on: Cryptococcus neoformans; assay: Inhibitory activity tested against Cryptococcus neoformans at 256 ug/mL concentration; assay type: functional
[5] = tested on: Saccharomyces cerevisiae; assay: Inhibitory activity tested against Saccharomyces cerevisiae at 256 ug/mL concentration; assay type: functional

| IC50 [1] [µM] | SMILES | Ki [1] [µM] | also measured |
| --- | --- | --- | --- |
| 3200 | O=C(NC[C@H]1OC(n2ccc(=O)[nH]c2=O)[C@H](O)[C@@H]1O)[C@H](O)[C@@H](O)C(=O)OCc1ccc(O)cn1 (stereo partly specified) |  |  |
| 2000 | O=C(NC[C@@H]1OC(n2ccc(=O)[nH]c2=O)[C@H](O)[C@@H]1O)[C@H](O)[C@@H](O)C(=O)OCc1ccc2ccccc2n1 (stereo partly specified) | 800 |  |
| 2000 | O=c1ccn([C@@H]2O[C@H](CO[C@@H]3O[C@@H](CO)[C@@H](OCc4ccc5ccccc5n4)[C@H](O)[C@@H]3O)[C@@H](O)[C@H]2O)c(=O)[nH]1 |  |  |
| 2800 | O=C(CC(=O)OC[C@H]1OC(n2ccc(=O)[nH]c2=O)[C@H](O)[C@@H]1O)OCc1ccc(O)cn1 (stereo partly specified) |  |  |
| 0.34 | C[C@@H]([C@H](N)C(=O)N[C@H](C(=O)O)[C@H]1O[C@@H](n2ccc(=O)[nH]c2=O)[C@H](O)[C@@H]1O)[C@H](O)c1ccc(O)cn1 [NIKKOMYCIN] |  |  |
| 800 | O=c1ccn([C@@H]2O[C@H](CO[C@@H]3O[C@@H](CO)[C@@H](O)[C@H](OCc4ccc5ccccc5n4)[C@@H]3O)[C@@H](O)[C@H]2O)c(=O)[nH]1 | 250 |  |
| 0.5 | C[C@@H]([C@H](N)C(=O)N[C@H](C(=O)O)[C@H]1O[C@@H](n2ccc(=O)[nH]c2=O)[C@H](O)[C@@H]1O)[C@H](O)c1ccc(O)cn1 (stereo in doubt) [NIKKOMYCIN] | 0.34 |  |
| 3200 | O=c1ccn([C@@H]2O[C@H](CO[C@@H]3O[C@@H](COCc4ccc5ccccc5n4)[C@@H](O)[C@H](O)[C@@H]3O)[C@@H](O)[C@H]2O)c(=O)[nH]1 |  | inhibition at 256 µg/mL [2]: 30%; inhibition at 256 µg/mL [3]: 30%; inhibition at 256 µg/mL [4]: 80%; inhibition [5]: 30% |
| 10800 | COCOc1ccc(COC(=O)CC(=O)OC[C@H]2OC(n3ccc(=O)[nH]c3=O)[C@H](O)[C@@H]2O)nc1 (stereo partly specified) |  |  |
